Values quoted from earlier work as cited in patent US20230139125A1, “DIETARY SUPPLEMENT FOR IMPROVING BRAIN PERFORMANCE” (priority 2021, published 2023).

Legend:
[1] = test system: brain-derived neurotrophic factor (i.e. BDNF); conditions: ingesting small amounts
age-related memory loss = conditions: end of six-month period; participants with relatively low memory scores at start; compared to placebo

Substance	brain-derived neurotrophic factor (i.e. BDNF) [1]	memory (age-related memory loss)
chlorogenic acids	not obtained	
Phosphatidylserine [PS]		significant improvement in memory
